Source: patent US20100152297A1, “COMPOSITION FOR REGULATING CELLULAR SENESCENCE COMPRISING N-[2-(CYCLOHEXY-LOXYL)-4-NITROPHENYL]-METHANESULFONAMIDE” (priority 2007, published 2010)
“Also recorded” adds a separate entry of the source.

Columns and labels:
[1] = tested on: human fibroblasts; experiment: Regulation of growth rate: number of population doublings (PDs); type: cell-based; conditions: for reduction of the maximum number of population doublings compared to DMSO: celecoxib 1 μM, nimesulide 20 μM, aspirin 1 mM, ibuprofen 20 μM, flurbiprofen 5 μM; for effect on cellular senescence: conclusion from population doublings and SA-β-gal staining
Procedure: According to the literature of Boyce and Ham (1983), human fibroblasts were isolated from foreskin, and then cultured in a DMEM medium, containing 10% fetal bovine serum (Life Technology Inc., Grand Island, N.Y.), penicillin (100 units/ml) and streptomycin (100 units/ml)). […] Then, the number of the cells was calculated by trypan blue staining, and the number of population doublings (PDs) of the cells was calculated according to the following equation 1: Number of population doublings (PDs)=log(A/B)/log2 [Math Figure 1] wherein A is the number of cells harvested at one passage, and B is the initial cell number at that passage.

[2] = tested on: Drosophila; conditions: long-term administration; reference 15; cited from earlier work
[3] = tested on: human vascular endothelial cells; conditions: reference 16; cited from earlier work
[4] = tested on: human fibroblasts; experiment: Senescence-associated beta-galactosidase (SA-β-gal) staining; type: cell-based; conditions: celecoxib 1 μM, nimesulide 20 μM, aspirin 1 mM, ibuprofen 20 μM, flurbiprofen 5 μM
Procedure: Herein, the senescence-associated β-galactosidase (SA-β-gal) staining was performed in the following manner according to the method of Dimri et al. (1995) (17). […] The cultured cells were seeded on a 35 mm dish, and then stabilized. Then, the cells were washed twice with PBS and fixed with 3% formaldehyde at room temperature for 5 minutes. […] During the progression of the reaction, light was blocked. […] The experiment was independently repeated twice, and the mean value and standard deviation of the measurements were calculated.

[5] = tested on: Gpx-1 (glutathione peroxidase-1); experiment: Western blot, Gpx-1 expression; type: cell-based, human; conditions: P28 cells cultured in the presence of inhibitor
[6] = tested on: p21; experiment: Western blot, p21 expression; type: cell-based, human; conditions: cells cultured with inhibitor, harvested at each passage
Procedure: In order to examine the effects of COX-2 inhibitors on cellular senescence, cells were cultured and treated in the same manner as in Example 2, and then subjected to Western blot. The cultured cells were washed and collected in PBS, and then were disrupted in RIPA buffer (150 mM NaCl, 100 mM Tris-HCl, 1% Tween-20, 1% sodium deoxycholate and 0.1% SDS), containing 0.5 mM EDTA, 1 mM PMSF, 10 μg/ml leupeptin, 10 μg/ml aprotinin and 10 μg/ml pepstatin. The disrupted cells were centrifuged, and the supernatant was collected. Proteins in the cell extract were isolated by SDS-PAGE and transferred to nitrocellulose membranes. Then, the proteins were allowed to react with each of p53, p21, COX-1, COX-2 and caveolin-1 antibodies, and the protein-antibody complexes on the nitrocellulose membranes were allowed to react with peroxidase-conjugated anti-mouse or anti-rabbit secondary antibody. Then, the corresponding bands were visualized by chemiluminescence (Amersham Bioscience, Boston, Mass.) using an ECL kit. Herein, the antibodies for p53, p21 and COX-1 were purchased from Oncogene Science (Cambridge, Mass.), Cell Signaling Technology, Inc. (Danvers, Mass.), and Santa Cruz Biotechnology (Santa Cruz, Calif.), respectively, and the antibodies for COX-2 and cavelolin-1 were purchased from BD Bioscience (San Jose, Calif.). […]

[7] = tested on: reactive oxygen species; experiment: Measurement of reactive oxygen species with DCFH-DA; type: cell-based, human; conditions: treated for a long period of time (65 days), P29
Procedure: In order to examine the effects of COX-2 inhibitors on cellular senescence, cells were cultured and treated in the same manner as in Example 2, and reactive oxygen in the cells was then measured. The cultured cells were treated with 5 μM DCFH-DA (Invitrogen, Carlsbad, Calif.), and the cells were incubated at 37 C for 45 minutes and then washed with PBS. The washed cells were collected in 1 ml PBS, and then disrupted with ultrasonic waves. The fluorescence of the cells was measured with a fluorescence spectrophotometer (Molecular Devices, Sunnyvale, Calif.), and the measured fluorescence value was corrected with the cell number.

[8] = tested on: catalase; experiment: Western blot, catalase expression; type: cell-based, human; conditions: P28 cells cultured in the presence of inhibitor
[9] = tested on: total cholesterol; experiment: Analysis of intracellular total cholesterol; type: cell-based, human; conditions: corrected with protein concentration
Procedure: In order to examine the effects of COX-2 inhibitors on cellular senescence, cells were cultured and treated in the same manner as in Example 2, and then analyzed for cholesterol. 2×10^6 cells were treated with a mixture of chloroform and methanol (2:1) to extract a fatty component. The amount of total cholesterol in the fatty component was measured at 570 nm using a staining method according to the manual of BioVision (Mountain View, Calif.), and the measured values were corrected with the protein concentration.

[10] = tested on: human promonocytes; conditions: reference 25; cited from earlier work
[11] = tested on: SOD-2 (superoxide dismutase-2); experiment: Western blot, SOD-2 expression; type: cell-based, human; conditions: P28 cells cultured in the presence of inhibitor
[12] = tested on: caveolin-1; experiment: Western blot, caveolin-1 expression; type: cell-based, human; conditions: for expression of caveolin-1: cells cultured with inhibitor, harvested at each passage; for expression of caveolin-1, short treatment: short period of time (NS-398: 4 hours)
Procedure: In order to examine the effects of COX-2 inhibitors on cellular senescence, cells were cultured and treated in the same manner as in Example 2, and then subjected to Western blot. The cultured cells were washed and collected in PBS, and then were disrupted in RIPA buffer (150 mM NaCl, 100 mM Tris-HCl, 1% Tween-20, 1% sodium deoxycholate and 0.1% SDS), containing 0.5 mM EDTA, 1 mM PMSF, 10 μg/ml leupeptin, 10 μg/ml aprotinin and 10 μg/ml pepstatin. The disrupted cells were centrifuged, and the supernatant was collected. Proteins in the cell extract were isolated by SDS-PAGE and transferred to nitrocellulose membranes. Then, the proteins were allowed to react with each of p53, p21, COX-1, COX-2 and caveolin-1 antibodies, and the protein-antibody complexes on the nitrocellulose membranes were allowed to react with peroxidase-conjugated anti-mouse or anti-rabbit secondary antibody. Then, the corresponding bands were visualized by chemiluminescence (Amersham Bioscience, Boston, Mass.) using an ECL kit. Herein, the antibodies for p53, p21 and COX-1 were purchased from Oncogene Science (Cambridge, Mass.), Cell Signaling Technology, Inc. (Danvers, Mass.), and Santa Cruz Biotechnology (Santa Cruz, Calif.), respectively, and the antibodies for COX-2 and cavelolin-1 were purchased from BD Bioscience (San Jose, Calif.). Also, β-actin was used as an intracellular control protein to correct the amount of the intracellular total protein.

[13] = tested on: p53; experiment: Western blot, p53 expression; type: cell-based, human; conditions: cells cultured with inhibitor, harvested at each passage
[14] = tested on: caveolin-1 mRNA; experiment: RT-PCR, caveolin-1 mRNA; type: cell-based, human; conditions: corrected with GAPDH
Procedure: In order to examine the effects of COX-2 inhibitors on cellular senescence, cells were cultured and treated in the same manner as in Example 2, and then subjected to RT-PCR. […] The cavelolin-1 gene was amplified using a sense primer ([NT]) and an anti-sense primer ([NT]), and the GAPDH gene was amplified using a sense primer ([NT]) and an anti-sense primer ([NT]). The polymerase chain reaction was performed in the following conditions: 25 cycles of 30 sec at 95 t, 30 sec at 60° C. and 30 sec at 72° C. The resulting DNA products were electrophoresed on 2% agarose gel containing EtBr.

[15] = tested on: collagen; conditions: fibroblasts and hepatic stellate cells; references 24 and 36; cited from earlier work

SMILES: CC(=O)Oc1ccccc1C(=O)O [aspirin, acetylsalicylic acid]
- reduction of the maximum number of population doublings compared to DMSO ([1]; PD 24 before treatment): 7 times
- effect on cellular senescence [1]: promoted cellular senescence
- average lifespan of Drosophila [2]: led to a decrease in the average lifespan of the Drosophila or had no effect on the average lifespan
- effect on senescence in human vascular endothelial cells [3]: inhibited senescence
- increase of the ratio of SA-β-gal positive cells compared to DMSO [4]: 1.9 times

SMILES: O=C(O)c1ccccc1O [salicylic acid]
- average lifespan of Drosophila [2]: led to a decrease in the average lifespan of the Drosophila or had no effect on the average lifespan

SMILES: CS(=O)(=O)Nc1ccc([N+](=O)[O-])cc1Oc1ccccc1 [nimesulide]
- expression of Gpx-1 [5]: reduced
- expression of p21 [6]: increased
- reduction of the maximum number of population doublings compared to DMSO ([1]; PD 24 before treatment): two
- effect on cellular senescence [1]: promoted cellular senescence
- increase of the level of reactive oxygen species [7]: 1.2 times
- expression of catalase [8]: reduced
- intracellular total cholesterol concentration [9]: increased
- reactive oxygen species in human promonocytes [10]: remove reactive oxygen species
- increase of the ratio of SA-β-gal positive cells compared to DMSO [4]: 1.3 times
- expression of SOD-2 [11]: reduced
- expression of caveolin-1 [12]: increased
- expression of caveolin-1, short treatment [12]: did not significantly change
- expression of p53 [13]: increased
- mRNA level of caveolin-1 [14]: increased

SMILES: CC(C(=O)O)c1ccc(-c2ccccc2)c(F)c1 (stereo not shown) [flurbiprofen]
- reduction of the maximum number of population doublings compared to DMSO ([1]; PD 24 before treatment): 4 times
- effect on cellular senescence [1]: promoted cellular senescence
- increase of the ratio of SA-β-gal positive cells compared to DMSO [4]: 1.6 times

SMILES: Cc1ccc(-c2cc(C(F)(F)F)nn2-c2ccc(S(N)(=O)=O)cc2)cc1 [celecoxib]
- increase of the level of reactive oxygen species [7]: 1.2 times

SMILES: CC(C)Cc1ccc(C(C)C(=O)O)cc1 (stereo not shown) [ibuprofen]
- reduction of the maximum number of population doublings compared to DMSO ([1]; PD 24 before treatment): 5 times
- effect on cellular senescence [1]: promoted cellular senescence
- increase of the ratio of SA-β-gal positive cells compared to DMSO [4]: 1.7 times

SMILES: COc1ccc2c(c1)c(CC(=O)O)c(C)n2C(=O)c1ccc(Cl)cc1 [indomethacin]
- average lifespan of Drosophila [2]: led to a decrease in the average lifespan of the Drosophila or had no effect on the average lifespan
- effect on senescence in human vascular endothelial cells [3]: promoted senescence

SMILES: CS(=O)(=O)Nc1ccc([N+](=O)[O-])cc1OC1CCCCC1 [NS-398, N-[2-(cyclohexyloxyl)-4-nitrophenyl]-methanesulfonamide]
- expression of Gpx-1 [5]: increased
- expression of p21 [6]: inhibited
- increase of the maximum number of population doublings compared to DMSO ([1]; PD 24 before treatment, NS-398 20 μM): 7 times
- effect on cellular senescence [1]: inhibited cellular senescence; also recorded: strongly inhibits cellular senescence
- reduction of the level of reactive oxygen species [7]: three
- expression of catalase [8]: reduced
- expression of collagen [15]: increased
- intracellular total cholesterol concentration [9]: reduced
- reactive oxygen species in human promonocytes [10]: remove reactive oxygen species
- expression of SOD-2 [11]: reduced
- expression of caveolin-1 [12]: inhibited the expression of caveolin-1 at all passages
- expression of caveolin-1, short treatment [12]: clearly inhibited
- expression of p53 [13]: without inhibiting
- mRNA level of caveolin-1 [14]: reduced
